Patent US6677355B1, “Hydroxamic acid compounds useful as matrix metalloproteinase inhibitors” (Warner-Lambert Company, priority 1999, dated 2004)

Columns and labels:
[1] = biological target: T1, MMP-13CD (collagenase-3 catalytic domain) (Homo sapiens, UniProt P45452); assay: MMP-13CD inhibition, thiopeptolide substrate hydrolysis; format: biochemical; conditions: average where multiple samples assayed
T1 construct: MMP-13CD (collagenase-3 catalytic domain); made in house; host or cells: Escherichia coli
Method: (§1) The compounds were evaluated in order to determine their respective IC50 values, i.e., the micromolar concentration of compound required to achieve a 50% inhibition of the hydrolytic activity of the respective enzymes.
(§2) Experiments were carried out with the full-length (“FL”) and/or catalytic domains (“CD”) of the proteinases. […] IC50 values were determined using a thiopeptolide substrate, Ac-Pro-Leu-Gly-thioester-Leu-Leu-Gly-OEt (Ye Q.-Z., Johnson L. L., Hupe D. J., and Baragi V., “Purification and Characterization of the Human Stromelysin Catalytic Domain Expressed in Escherichia coli,” Biochemistry, 1992;31:11231-11235; Ye Q.-Z., Johnson L. L., Yu A. E., and Hupe D., “Reconstructed 19 kDa Catalytic Domain of Gelatinase A IAAP,” Biochemistry, 1995;34:4702-4708.)
(§3) The tested MMPs are available to those skilled in the art. For example, MMP-1 can be obtained from Washington University School of Medicine, St. Louis, Mo. MMP-7 can be obtained in accordance with the known procedure set forth by Ye Q. Z., Johnson L. L., and Baragi V., “Gene Syntheses and Expression in E. coli for PUMP, a Human Matrix Metalloproteinase,” Biochem. and Biophys. Res. Comm., 1992;186:143-149. MMP-13 can be obtained in accordance with the known procedure set forth by Freije J. M. P. et al., “Molecular Cloning and Expression of Collagenase-3, a Novel Human Matrix Metalloproteinase Produced by Breast Carcinomas,” J. Bio. Chem., 1994;269:16766-16773. MMP-13CD can also be expressed from a synthetic gene and purified from Escherichia coli cell culture according to a previously described method (Ye Q.-Z., Johnson L. L., and Baragi V., “Gene Synthesis and Expression in E. coli for PUMP, a Human Matrix Metalloproteinase,” Biochemical and Biophysical Research Communications, 1992;186:143-149). Hydrolysis of the thiopeptolide substrate Ac-Pro-Leu-Gly-thioester-Leu-Leu-Gly-OEt (Bachem) was used as the primary screen to determine IC50 values for MMP inhibitors. A 100 μL reaction contains 1 mM 5,5′-dithiobis(2-nitrobenzoic acid) (DTNB), 100 μM substrate, 0.1% BRIJ® 35, PROTEIN GRADE®, Detergent, 10% solution, Sigma, St. Louis, Mo. [polyoxyethyleneglycol dodecyl ether; polyoxyethylene (23) lauryl ether], enzyme, and inhibitor in the appropriate reaction buffer. Activated full-length enzymes are assayed at 5 nM, Stromelysin Catalytic Domain (SCD) at 10 nM, and Gelatinase A Catalytic Domain (GaCD) at 1 nM. Inhibitors are screened from 100 μM to 1 nM. Full-length enzymes (e.g., MMP-1 and MMP-7) are assayed in 50 mM 4-(2-[…])-piperazine-1-ethane sulfonic acid (HEPES), 10 mM CaCl2, pH 7.0; SCD in 50 mM 2-morpholinoethane sulfonic acid monohydrate (MES), 10 mM CaCl2, pH 6.0; and GaCD in 50 mM 3-morpholtriopropane sulfonic acid (MOPS), 10 mM CaCl2, 10 μM ZnCl2, pH 7.0. The change in absorbance at 405 nanometers is monitored on a ThermoMax microplate reader at room temperature continuously for 20 minutes.
(§4) The number in parenthesis indicates the number of samples assayed.

[2] = biological target: T2, MMP-2FL (gelatinase A full-length enzyme) (Homo sapiens, UniProt P08253); assay: MMP-2FL inhibition, thiopeptolide substrate hydrolysis; format: biochemical; conditions: average where multiple samples assayed
T2 sequence (P08253 110-660): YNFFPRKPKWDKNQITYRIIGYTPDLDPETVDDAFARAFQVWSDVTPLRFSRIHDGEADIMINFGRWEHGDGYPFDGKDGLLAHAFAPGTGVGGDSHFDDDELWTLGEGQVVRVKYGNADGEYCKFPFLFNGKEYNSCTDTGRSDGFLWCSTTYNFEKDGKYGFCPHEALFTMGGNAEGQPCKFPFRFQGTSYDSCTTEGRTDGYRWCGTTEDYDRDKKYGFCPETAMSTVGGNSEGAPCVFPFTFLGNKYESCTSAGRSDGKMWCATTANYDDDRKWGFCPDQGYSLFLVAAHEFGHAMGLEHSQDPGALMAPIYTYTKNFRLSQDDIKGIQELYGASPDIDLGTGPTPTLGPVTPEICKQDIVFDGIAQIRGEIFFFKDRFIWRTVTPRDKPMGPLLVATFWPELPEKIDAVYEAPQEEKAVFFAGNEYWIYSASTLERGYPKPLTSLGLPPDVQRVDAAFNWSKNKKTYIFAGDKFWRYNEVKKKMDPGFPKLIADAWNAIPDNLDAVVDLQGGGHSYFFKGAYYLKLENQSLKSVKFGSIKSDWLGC
Method: as §1, §2, §3, §4

[3] = biological target: T3, MMP-14CD (membrane-type MMP-1 catalytic domain) (Homo sapiens, UniProt P50281); assay: MMP-14CD inhibition, thiopeptolide substrate hydrolysis; format: biochemical; conditions: average where multiple samples assayed
T3 construct: MMP-14CD (membrane-type MMP-1 catalytic domain)
Method: as §1, §2, §3, §4

[4] = biological target: T4, MMP-7FL (matrilysin full-length enzyme) (Homo sapiens, UniProt P09237); assay: MMP-7FL inhibition, thiopeptolide substrate hydrolysis; format: biochemical; conditions: average where multiple samples assayed
T4 construct: made in house; host or cells: E. coli
T4 sequence (P09237 95-267): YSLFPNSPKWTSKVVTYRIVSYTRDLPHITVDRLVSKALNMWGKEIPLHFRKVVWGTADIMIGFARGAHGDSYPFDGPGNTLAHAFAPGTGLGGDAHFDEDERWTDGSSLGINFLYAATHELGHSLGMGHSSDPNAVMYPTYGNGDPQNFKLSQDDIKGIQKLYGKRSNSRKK
Method: as §1, §2, §3, §4

[5] = biological target: T5, MMP-3CD (stromelysin-1 catalytic domain) (Homo sapiens, UniProt P08254); assay: MMP-3CD inhibition, thiopeptolide substrate hydrolysis; format: biochemical; conditions: average where multiple samples assayed
T5 construct: MMP-3CD (stromelysin-1 catalytic domain); made in house; host or cells: Escherichia coli
T5 sequence (P08254 100-272 limits assumed): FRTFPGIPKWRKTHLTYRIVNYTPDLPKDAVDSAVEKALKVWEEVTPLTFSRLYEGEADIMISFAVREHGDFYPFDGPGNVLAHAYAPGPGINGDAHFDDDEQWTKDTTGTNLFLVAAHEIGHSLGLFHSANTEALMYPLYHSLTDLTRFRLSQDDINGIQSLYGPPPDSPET
Method: as §1, §2, §3, §4

[6] = biological target: MMP-2CD (gelatinase A catalytic domain) (Homo sapiens, UniProt P08253); assay: MMP-2CD inhibition, thiopeptolide substrate hydrolysis; format: biochemical; conditions: average where multiple samples assayed
Sequence of MMP-2CD (gelatinase A catalytic domain) (P08253 with tags, fused parts or gaps DEL220-393): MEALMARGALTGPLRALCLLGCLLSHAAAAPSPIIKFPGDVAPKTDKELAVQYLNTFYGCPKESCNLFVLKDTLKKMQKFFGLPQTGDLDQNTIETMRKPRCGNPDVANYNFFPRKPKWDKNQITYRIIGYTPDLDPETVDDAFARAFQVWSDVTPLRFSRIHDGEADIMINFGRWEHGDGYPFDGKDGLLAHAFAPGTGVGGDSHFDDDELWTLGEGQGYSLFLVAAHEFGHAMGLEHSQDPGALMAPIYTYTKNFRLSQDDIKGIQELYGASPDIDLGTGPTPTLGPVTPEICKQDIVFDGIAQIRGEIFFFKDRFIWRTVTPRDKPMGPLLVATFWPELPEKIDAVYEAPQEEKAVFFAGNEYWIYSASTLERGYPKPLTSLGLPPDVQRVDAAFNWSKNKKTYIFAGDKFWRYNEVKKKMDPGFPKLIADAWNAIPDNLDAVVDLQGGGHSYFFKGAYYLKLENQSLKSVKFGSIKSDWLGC
Method: as §1, §2, §3, §4

[7] = biological target: T6, MMP-1FL (collagenase-1 full-length enzyme) (Homo sapiens, UniProt P03956); assay: MMP-1FL inhibition, thiopeptolide substrate hydrolysis; format: biochemical; conditions: average where multiple samples assayed
T6 construct: purchased Washington University School of Medicine, St. Louis, Mo
T6 sequence (P03956 100-469): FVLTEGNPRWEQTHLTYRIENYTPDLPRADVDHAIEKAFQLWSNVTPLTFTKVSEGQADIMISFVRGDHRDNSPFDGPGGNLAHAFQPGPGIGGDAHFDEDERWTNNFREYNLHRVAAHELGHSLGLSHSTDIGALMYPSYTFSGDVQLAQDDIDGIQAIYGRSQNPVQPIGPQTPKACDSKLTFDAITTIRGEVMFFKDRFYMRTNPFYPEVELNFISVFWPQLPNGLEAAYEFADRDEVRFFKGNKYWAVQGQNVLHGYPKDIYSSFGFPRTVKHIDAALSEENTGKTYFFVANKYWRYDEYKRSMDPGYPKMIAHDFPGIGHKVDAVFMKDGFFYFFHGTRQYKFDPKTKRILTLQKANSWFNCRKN
Method: as §1, §2, §3, §4

[8] = biological target: MMP-9FL (gelatinase B full-length enzyme) (Homo sapiens, UniProt P14780); assay: MMP-9FL inhibition, thiopeptolide substrate hydrolysis; format: biochemical; conditions: average where multiple samples assayed
Sequence of MMP-9FL (gelatinase B full-length enzyme) (P14780 107-707 limits assumed, species assumed): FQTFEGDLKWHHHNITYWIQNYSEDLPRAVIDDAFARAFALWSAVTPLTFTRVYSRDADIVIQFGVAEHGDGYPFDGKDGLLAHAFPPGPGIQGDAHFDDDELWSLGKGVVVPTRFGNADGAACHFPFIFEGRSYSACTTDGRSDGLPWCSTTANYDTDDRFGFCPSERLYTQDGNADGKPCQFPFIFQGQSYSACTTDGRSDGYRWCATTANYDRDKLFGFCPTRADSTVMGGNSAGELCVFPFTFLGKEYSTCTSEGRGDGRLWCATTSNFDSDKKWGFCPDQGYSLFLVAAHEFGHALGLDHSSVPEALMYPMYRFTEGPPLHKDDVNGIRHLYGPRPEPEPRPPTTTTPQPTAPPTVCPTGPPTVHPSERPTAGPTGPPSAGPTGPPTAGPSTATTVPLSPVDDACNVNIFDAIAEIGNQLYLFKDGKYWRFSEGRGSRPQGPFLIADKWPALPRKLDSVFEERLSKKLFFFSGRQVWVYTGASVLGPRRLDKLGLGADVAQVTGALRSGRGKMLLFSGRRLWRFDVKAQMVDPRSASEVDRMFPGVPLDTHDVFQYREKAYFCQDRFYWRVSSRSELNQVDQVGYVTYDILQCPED
Method: as §1, §2, §3, §4

For `O=C(NO)C1(NS(=O)(=O)c2ccc3c(c2)oc2ccccc23)CCOCC1` [Example 31, 4-(Dibenzofuran-3-sulfonylamino)-tetrahydro-pyran-4-carboxylic acid hydroxyamide], the IC50 [1] was 48 nM, the IC50 [2] was 5.25 nM and the IC50 [3] was 5.75 nM. For the same compound, the IC50 [4] was 3000 nM, the IC50 [5] was 14.7 nM and the IC50 [6] was 2.3 nM. It also gave an IC50 [7] of 380 nM, a melting point of 160 to 162 °C and an IC50 [8] of 250 nM.

Work on `O=C(NO)C1(NS(=O)(=O)c2ccc3c(c2)oc2ccccc23)CCCCC1` [Example 28, 1-(Dibenzofuran-3-sulfonylamino)-cyclohexanecarboxylic acid hydroxyamide] yielded an IC50 [1] of 49 nM, an IC50 [2] of 4.5 nM and an IC50 [3] of 3.9 nM. It also gave an IC50 [4] of 4050 nM, an IC50 [5] of 15.5 nM and an IC50 [6] of 1.7 nM. It also gave an IC50 [7] of 295 nM, a melting point of 184 to 186 °C and an IC50 [8] of 135 nM.

For `CC(C)(NS(=O)(=O)c1ccc2c(c1)oc1ccccc12)C(=O)NO` [Example 30, 2-(Dibenzofuran-3-sulfonylamino)-N-hydroxy-2-methyl-propionamide], the IC50 [1] was 105 nM, the IC50 [2] was 4.75 nM and the IC50 [3] was 13.5 nM. The IC50 [4] was 100000 nM, the IC50 [5] was 83.5 nM and the IC50 [6] was 4.3 nM. It also gave an IC50 [7] of 905 nM, a melting point of 168 to 169 °C and an IC50 [8] of 860 nM.

`O=C(NO)C1(NS(=O)(=O)c2ccc3oc4cc(Br)ccc4c3c2)CCCC1` [Example 32, 1-(7-Bromo-dibenzofuran-2-sulfonylamino)-cyclopentane carboxylic acid hydroxamide] gave an IC50 [1] of 165 nM, an IC50 [2] of 205 nM and an IC50 [3] of 340 nM. It also gave an IC50 [4] of 350 nM, an IC50 [5] of 35 nM and an IC50 [6] of 82.7 nM. For the same compound, the IC50 [7] was 5750 nM and the IC50 [8] was 13000 nM.

For `CC(C)(NS(=O)(=O)c1ccc2c(c1)oc1ccccc12)C(=O)O` [Example 29, 2-(Dibenzofuran-3-sulfonylamino)-2-methyl-propionic acid], the IC50 [1] was 450 nM, the IC50 [2] was 19.8 nM and the IC50 [3] was 22.5 nM. The IC50 [4] was 34000 nM, the IC50 [5] was 8.35 nM and the IC50 [6] was 2.65 nM. It also gave an IC50 [7] of 8250 nM, a melting point of 220 to 224 °C and an IC50 [8] of 11500 nM.

In the case of `CC(C)(NS(=O)(=O)c1ccc2oc3cc(Cl)ccc3c2c1)C(=O)NO` [Example 33, 2-(7-Chloro-dibenzofuran-2 sulfonylamino)-N-hydroxy-2-methyl-propionamide], the IC50 [1] is reported as 110 nM, the IC50 [2] is reported as 125 nM and the IC50 [3] is reported as 300 nM. It also gave an IC50 [4] of 920 nM, an IC50 [5] of 43 nM and an IC50 [6] of 81 nM. For the same compound, the IC50 [7] was 3050 nM and the IC50 [8] was 15000 nM.

In the case of `O=C(O)C1(NS(=O)(=O)c2ccc3c(c2)oc2ccccc23)CCCCC1` [Example 27, 1-(Dibenzofuran-3-sulfonylamino)-cyclohexanecarboxylic acid], the IC50 [1] is reported as 230 nM, the IC50 [2] is reported as 23 nM and the IC50 [3] is reported as 26.5 nM. For the same compound, the IC50 [4] was 4250 nM, the IC50 [5] was 9.25 nM and the IC50 [6] was 2.7 nM. The IC50 [7] was 1750 nM, the melting point was 239 to 243 °C and the IC50 [8] was 3700 nM.
